Data on six compounds can be found in patent US20050222013A1, “Methods for the use of inhibitors of histone deacetylase as synergistic agents in cancer therapy” (Georgetown University, priority 2003, published 2005).

Common to all, as to type: cell-based, human
For assay [1], the system named is SQ-20B cells. Nature of the assay: IC50 determination by clonogenic cell kill (24 hour drug treatment, colonies scored after 2 to 3 weeks). The note with it: 24 hour treatment. As to the method:
IC50 is defined as the concentration of the HDAC inhibitor that kills 50% of cells following treatment with the drug. To determine the IC50, a series of dilutions of drug is used over a broad range, for example 0-1.6 μg/ml. Approximately 100-400 cells are seeded into T-25 flasks in triplicate and treated with various concentrations of the drug. After a 24 hour treatment, the cells are washed with standard PBS (phosphate buffered saline) solution. Cells are then grown in fresh media for 2 to 3 weeks. Colonies are stained with crystal violet and scored. Concentrations of drugs showing 50% cell death represent the IC50 concentration.

In assay [2] the test system is SQ-20B cells. The assay is described as follows: Clonogenic survival after ionizing radiation, fit to the single hit multitarget and linear quadratic models. Also noted: α (linear quadratic model) / β (linear quadratic model) / Do (multitarget model radiosensitivity): unit not given here. The note with it: for Do (multitarget model radiosensitivity) / α (linear quadratic model) / β (linear quadratic model): SQ-20B cells treated with drug at IC50, then gamma radiation. Here is the method:
Logarithmically growing SQ-20B cells were treated with TSA (about 60 ng/ml) for about 24 h and the medium was replaced with fresh medium. Cells were exposed to a graded dose of gamma radiation. A semi-logarithmic plot of the data for these cells is shown. Clonogenic survival numbers were determined and fit to the single hit multitarget and the linear quadratic models for analysis, measured by clonogenic survival analysis. Points and bars represent mean+/−SEM from triplicate flasks in each experiment.
The effectiveness of a particular treatment can be determined by measuring the radiation survival. Post treatment survival can be studied both in vitro and in vivo. For example, for in vitro determinations, exponentially growing cells can be exposed to known doses of radiation and the survival of the cells monitored. Irradiated cells are plated and cultured for about 14-about 21 days, and the colonies are stained. The surviving fraction is […]. Graphing the surviving fraction on a log scale versus the absorbed dose on a linear scale generates a survival curve. Survival curves generally show an exponential decrease in the fraction of surviving cells at higher radiation doses after an initial shoulder region in which the dose is sublethal. A similar protocol can be used for chemical agents.
Two mathematical models are commonly employed to analyze radiation survival data. A first model is the multi-target model. In this analysis, the reciprocal of the slope of the survival curve is defined as D0, the radiosensitivity of the cell population or tissue under investigation. D0 is the dose required to reduce the surviving fraction to about 37% in the exponential portion of the survival curve. The extrapolation of the linear portion of the curve to the y-intercept is denoted n. The width of the shoulder region is represented by drawing a line from the 100% survival point to the extrapolation line, this width is denoted Dq. Dq is the quasi-threshold dose, or the point at which the reduction in surviving fraction as a function of radiation dosage becomes exponential. The Dq value can also provide an estimate of an additional total dose required for each division of a single dose therapy into fractional doses. The additional dose is required to overcome the effect of sublethal damage repair that occurs when two sublethal doses are separated in time.
The linear quadratic model (surviving fraction=[…]) is used to fit radiation survival data to a continuously bending curve, where D is dose and α and β are constants. Alpha is the linear component, a measure of the initial slope that represents single-hit killing kinetics and dominates the radiation response at low doses. Beta is the quadratic component of cell killing, that represents multiple-hit killing and causes the curve to bend at higher doses. The alpha:beta ratio is the dose at which the linear and quadratic components of cell killing are equal. The more linear the response to killing of cells at low radiation dose, the higher is the value of alpha, and the greater is the radiosensitivity of the cells.
A semi-logarithmic plot of the mean+/−SEM from triplicate flasks in each experiment for these cells is shown. Logarithmically growing SQ-20B cells were treated with TSA (about 60 ng/ml) for about 24 h and the medium was replaced with fresh medium. Cells were exposed to a graded dose of gamma radiation. Clonogenic survivals were determined and fit to the single hit multitarget and the linear quadratic models for analysis.

Assay [3] concerns SQ-20B cells. Nature of the assay: Cell cycle distribution by flow cytometry (G1 phase). The conditions noted are these: for Duration of G1 arresting effect: about 24 hour exposure, TSA about 60 ng/ml, mimosine about 0.4 mM. Here is the method:
FIGS. 2A and 2B show cell cycle distributions of SQ20B cells after treatment with either TSA (FIG. 2A) or mock treatment (FIG. 2B) for 24 h. Cells were washed with fresh medium and exposed to about 10 Gy ionizing radiation. Cell nuclei were prepared for flow cytometric analysis using the procedure of Vindelov et al. (46). The samples were analyzed on a Becton-Dickinson FACStarplus instrument and the percentage of nuclei with G1, S, and G2/M DNA content was determined. […] The radiation sensitivity of cells is a function of the cell cycle. The lethal effect of radiation exposure is often observed only after subsequent cell division. Accordingly, the G1 phase is the more radiation sensitive phase. The compounds employed in the invention are observed to maintain cells in the G1 phase following radiation exposure. Comparing FIG. 2A to FIG. 2B, it can be seen that exposure of SQ-20B cells to TSA for about 24 hours prior to radiation results in an accumulation of more than about 70% of cells in the G1 phase and a maintenance of about 50% of cells for about 12 hours. After treatment with either TSA (panel A) or mock treatment (panel B) for about 24 h, cells were washed with fresh medium and exposed to about 10 Gy ionizing radiation. Cell nuclei were prepared for flow cytometric analysis. The samples were analyzed on a Becton-Dickinson FACStarplus® instrument and the percentage of nuclei with G1, S, and G2/M DNA content was determined. By comparison, irradiated mock-treated cells are not arrested.
For orientation: A flow cytometer gives signals particle by particle.

In assay [4] the test system is SQ-20B cells. The assay is described as follows: Apoptotic index. As to the method: SQ-20B cells were exposed to about 10 Gy of irradiation. Time zero refers to cells that were subjected to sham irradiation. At the indicated times thereafter, attached and floating cells were collected and the number of apoptotic cells was determined as a percentage of the total number of cells (apoptotic index). Data shown represent mean values±SD from three independent experiments.
HDAC inhibitors are known to promote cancer cell death through apoptosis in vitro and in vivo. This has been a basis for the use of HDAC inhibitors at high concentrations as a single agent in chemical therapy. However, we have determined that the amount effective to synergize radiation-induced cell death is substantially less than the amount required to promote apoptosis. […] Concentrations that produce these effects can be determined for any HDAC inhibitory compound by one of skill in the art by observation of markers of apoptosis such as, for example, the apoptotic index and caspase activities.
Treatment with TSA (about 60 ng/ml) or mock treatment was followed by radiation (about 10 Gy). At about 24, about 48, and about 72 hours, attached and floating cells were collected and the number of apoptotic cells was determined as a percentage of the total number of cells (apoptotic index).

Structures are written as SMILES.

Turning to `CN(C)c1ccc(C(=O)NCCCCCC(=O)NO)cc1` [MD85], the “IC50 (concentration that kills 50% of cells)” value with SQ-20B cells [1] is 0.1 µg/mL. Moreover, in the assay on SQ-20B cells [2], the “Do (multitarget model radiosensitivity)” value was found to be 2.49, the “α (linear quadratic model)” value was 0.024 and the “β (linear quadratic model)” value came to 0.022.

On to `CN(C)c1ccc(C(=O)NCCCCCCC(=O)NO)cc1` [M344], for which the “IC50 (concentration that kills 50% of cells)” value in the assay on SQ-20B cells [1] amounted to 0.32 µg/mL. Moreover, in the assay on SQ-20B cells [2], the “Do (multitarget model radiosensitivity)” value is given as 1.65, the “α (linear quadratic model)” value is recorded as 0.077 and the “β (linear quadratic model)” value is given as 0.033.

Consider `O=C(CCCCCCC(=O)Nc1ccccc1)NO` [SAHA, suberonylanilide hydroxamic acid], for which, in the assay on SQ-20B cells [2], the “Do (multitarget model radiosensitivity)” value was 1.88, the “α (linear quadratic model)” value is listed as 0.011 and the “β (linear quadratic model)” value was determined as 0.031.

For the compound `NC(Cn1ccc(=O)c(O)c1)C(=O)O` (stereo not shown) [mimosine], the “Duration of G1 arresting effect” value in the assay on SQ-20B cells [3] was “about 4 hours”.

As for `CC(/C=C/C(=O)NO)=C\[C@@H](C)C(=O)c1ccc(N(C)C)cc1` [TSA, trichostatin A], in the assay on SQ-20B cells [1], the “IC50 (concentration that kills 50% of cells)” value is given as “about 60 ng/ml”. Also, in the assay on SQ-20B cells [2], the “Do (multitarget model radiosensitivity)” value worked out at 1.64, the “α (linear quadratic model)” value was 0.126 and the “β (linear quadratic model)” value came out at 0.030. For the same compound, in the assay with SQ-20B cells [2] (head and neck tumor cells, at about the IC50 concentration), the “Sensitization to ionizing radiation” value is “significantly sensitized head and neck tumor cells to ionizing radiation”. The “Duration of G1 arresting effect” value with SQ-20B cells [3] is recorded as “about 12 hours”. Moreover, in the assay on SQ-20B cells [3] (exposure for about 24 hours prior to radiation (about 10 Gy)), the “Cells accumulated in the G1 phase” value was “more than 70%”. The “Cells maintained in the G1 phase” value with SQ-20B cells [3] (maintained for about 12 hours after about 10 Gy) is given as “about 50%”. Besides, in the assay with SQ-20B cells [4] (about 60 ng/ml followed by about 10 Gy, about 24, 48, 72 hours), the “Apoptotic index, treated versus mock treated” value was “the number of treated and untreated apoptotic cells were similar”. Besides, in the assay on SQ-20B cells [4] (at about 3 to about 7 times the IC50), the Promotion of apoptosis result is listed as “does promote apoptosis”. Moreover, in the assay on SQ-20B cells [4] (at concentrations of about 200-about 400 ng/ml), the Promotion of apoptosis entry is reported as “did promote significant apoptosis”. Further, the Promotion of apoptosis entry in the assay with SQ-20B cells [4] (at the IC50 concentration of about 60 ng/ml) is given as “did not promote significant apoptosis”.

Take `C/C=C1\NC(=O)[C@H]2CSSCC/C=C/[C@H](CC(=O)N[C@H](C(C)C)C(=O)N2)OC(=O)[C@H](C(C)C)NC1=O` [FR, depsipsptide (FR 901228)]: the “IC50 (concentration that kills 50% of cells)” value in the assay on SQ-20B cells [1] came out at 0.005 µg/mL. Also, in the assay on SQ-20B cells [2], the “Do (multitarget model radiosensitivity)” value was found to be 1.65, the “α (linear quadratic model)” value turned out to be 0.104 and the “β (linear quadratic model)” value turned out to be 0.033.
